Measurements reported in patent publication EP1227083A1, “3-AMINOPIPERIDINE DERIVATIVES AS INTEGRIN $g(a)v$g(b)3 ANTAGONISTS” (Meiji Seika Kaisha, Ltd., priority 1999, dated 2001).
Values joined by “and” are separate entries in the source; they are usually repeats but may differ in a detail not shown here. Equal values may be shown once. Read-outs that look alike come from different tables or passages of the source.

Legend:
[1] = biological target: GP IIb/IIIa (Homo sapiens, UniProt P05106+P08514); test: GP IIb/IIIa antagonistic activity (method of Pharmacological Test 2 in WO 94/21599); assay type: binding; details: read-out: IC50 (GP IIb/IIIa antagonistic activity)
GP IIb/IIIa, sequence (P08514 32-887 limits assumed): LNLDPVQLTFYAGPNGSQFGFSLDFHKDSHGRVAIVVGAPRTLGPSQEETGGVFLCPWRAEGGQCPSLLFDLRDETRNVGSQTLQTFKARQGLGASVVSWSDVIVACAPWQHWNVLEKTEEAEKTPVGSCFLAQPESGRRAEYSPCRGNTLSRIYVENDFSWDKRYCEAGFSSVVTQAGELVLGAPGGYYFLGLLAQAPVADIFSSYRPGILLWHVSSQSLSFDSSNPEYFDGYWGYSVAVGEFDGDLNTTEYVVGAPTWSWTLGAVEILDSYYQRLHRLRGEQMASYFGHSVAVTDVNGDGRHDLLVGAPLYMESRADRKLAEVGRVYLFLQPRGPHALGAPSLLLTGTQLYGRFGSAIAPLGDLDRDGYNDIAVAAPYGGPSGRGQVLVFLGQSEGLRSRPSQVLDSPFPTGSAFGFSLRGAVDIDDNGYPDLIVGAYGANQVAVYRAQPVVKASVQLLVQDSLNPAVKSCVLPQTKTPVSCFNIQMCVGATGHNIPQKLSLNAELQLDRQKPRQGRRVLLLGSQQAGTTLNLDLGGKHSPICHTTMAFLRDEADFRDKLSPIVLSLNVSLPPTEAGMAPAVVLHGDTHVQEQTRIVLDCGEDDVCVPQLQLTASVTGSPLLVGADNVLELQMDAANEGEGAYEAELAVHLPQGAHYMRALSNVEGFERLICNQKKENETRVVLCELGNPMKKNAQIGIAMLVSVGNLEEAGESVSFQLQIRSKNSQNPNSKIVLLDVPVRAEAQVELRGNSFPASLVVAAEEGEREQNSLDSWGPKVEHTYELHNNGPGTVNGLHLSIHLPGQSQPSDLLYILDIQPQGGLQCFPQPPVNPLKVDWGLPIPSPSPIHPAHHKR
GP IIb/IIIa, sequence (P08514 891-1039 partner limits assumed): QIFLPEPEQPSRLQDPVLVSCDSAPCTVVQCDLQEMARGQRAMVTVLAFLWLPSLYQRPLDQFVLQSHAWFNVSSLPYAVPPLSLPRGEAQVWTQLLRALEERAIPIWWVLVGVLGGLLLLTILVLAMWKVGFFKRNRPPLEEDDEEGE
GP IIb/IIIa, sequence (P05106 27-788): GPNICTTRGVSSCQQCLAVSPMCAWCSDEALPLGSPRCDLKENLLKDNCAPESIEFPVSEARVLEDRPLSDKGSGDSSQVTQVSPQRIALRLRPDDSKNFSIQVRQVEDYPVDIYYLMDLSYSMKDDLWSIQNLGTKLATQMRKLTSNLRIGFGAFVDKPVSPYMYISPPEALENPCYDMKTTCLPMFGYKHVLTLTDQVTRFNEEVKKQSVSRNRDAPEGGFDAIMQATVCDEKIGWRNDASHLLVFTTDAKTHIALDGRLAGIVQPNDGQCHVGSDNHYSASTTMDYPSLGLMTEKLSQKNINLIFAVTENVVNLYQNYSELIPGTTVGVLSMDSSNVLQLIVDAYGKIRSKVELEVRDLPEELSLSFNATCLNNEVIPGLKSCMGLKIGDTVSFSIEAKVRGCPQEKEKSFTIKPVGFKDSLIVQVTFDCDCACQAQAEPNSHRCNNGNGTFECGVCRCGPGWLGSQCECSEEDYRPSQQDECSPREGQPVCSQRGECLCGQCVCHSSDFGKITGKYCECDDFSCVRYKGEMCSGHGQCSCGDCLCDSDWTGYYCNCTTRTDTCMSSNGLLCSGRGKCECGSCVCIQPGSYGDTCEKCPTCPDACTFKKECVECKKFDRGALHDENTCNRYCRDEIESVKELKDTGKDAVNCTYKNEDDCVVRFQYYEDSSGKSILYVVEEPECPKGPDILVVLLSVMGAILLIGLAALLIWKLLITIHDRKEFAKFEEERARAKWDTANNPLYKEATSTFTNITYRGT
Experimental: GP IIb/IIIa antagonistic activity was measured for compounds according to the present invention. The measurement of the GP IIb/IIIa antagonistic activity was carried out according to the method described in Pharmacological Test 2 in WO 94/21599.

[2] = tested on: human vascular smooth muscle cells; test: Inhibitory activity against adhesion of human vascular smooth muscle cells to vitronectin; assay type: cell-based; details: immobilized human vitronectin
Experimental: Pharmacological Test Example 3: Inhibitory activity against adhesion of human vascular smooth muscle cells to vitronectin
The adhesion of human vascular smooth muscle cells to immobilized human vitronectin was measured in accordance with the method of Liaw et al. (Liaw L, Almeida M, Hart CE, Schwartz SM, and Giachelli CM, Circulation Research, 74 (2), 214-224 (1994)).
A Dulbecco's phosphate buffer (Dulbecco's PBS(-), Nissui Pharmaceutical Co., Ltd.) solution of human plasma-derived vitronectin (CALBIOCHEM) adjusted to a concentration of 4 µg/ml was first added to wells (50 µl/well) of a microplate (Maxisorp, Nunc), and a reaction for immobilization was allowed to proceed at 4°C overnight. […]
Next, 50 µl of a Dulbecco's modified Eagle's basal medium containing 0.1% of bovine serum albumin with a medicament added thereto was added to the wells of the human vitronectin-coated assay microplate, followed by pre-cultivation under 5% carbon dioxide at 37°C for 10 min. […] The absorbance of the microplate thus obtained was measured at 595 nm. […] The inhibition was calculated by the following equation. IC50 was determined from a primary regression line of the logarithm of each concentration of the test compound and the logarithm of (100 - inhibition)/inhibition. […]

[3] = biological target: T1, Integrin αvβ3 (vitronectin receptor) (Homo sapiens, UniProt P05106+P06756); test: αvβ3 Binding assay (vitronectin-vitronectin receptor binding assay)
T1 construct: a vitronectin receptor (protein content: 118 µg/ml) purified from the human placenta; from tissue; host or cells: human placenta
T1 sequence (P06756 31-889 limits assumed): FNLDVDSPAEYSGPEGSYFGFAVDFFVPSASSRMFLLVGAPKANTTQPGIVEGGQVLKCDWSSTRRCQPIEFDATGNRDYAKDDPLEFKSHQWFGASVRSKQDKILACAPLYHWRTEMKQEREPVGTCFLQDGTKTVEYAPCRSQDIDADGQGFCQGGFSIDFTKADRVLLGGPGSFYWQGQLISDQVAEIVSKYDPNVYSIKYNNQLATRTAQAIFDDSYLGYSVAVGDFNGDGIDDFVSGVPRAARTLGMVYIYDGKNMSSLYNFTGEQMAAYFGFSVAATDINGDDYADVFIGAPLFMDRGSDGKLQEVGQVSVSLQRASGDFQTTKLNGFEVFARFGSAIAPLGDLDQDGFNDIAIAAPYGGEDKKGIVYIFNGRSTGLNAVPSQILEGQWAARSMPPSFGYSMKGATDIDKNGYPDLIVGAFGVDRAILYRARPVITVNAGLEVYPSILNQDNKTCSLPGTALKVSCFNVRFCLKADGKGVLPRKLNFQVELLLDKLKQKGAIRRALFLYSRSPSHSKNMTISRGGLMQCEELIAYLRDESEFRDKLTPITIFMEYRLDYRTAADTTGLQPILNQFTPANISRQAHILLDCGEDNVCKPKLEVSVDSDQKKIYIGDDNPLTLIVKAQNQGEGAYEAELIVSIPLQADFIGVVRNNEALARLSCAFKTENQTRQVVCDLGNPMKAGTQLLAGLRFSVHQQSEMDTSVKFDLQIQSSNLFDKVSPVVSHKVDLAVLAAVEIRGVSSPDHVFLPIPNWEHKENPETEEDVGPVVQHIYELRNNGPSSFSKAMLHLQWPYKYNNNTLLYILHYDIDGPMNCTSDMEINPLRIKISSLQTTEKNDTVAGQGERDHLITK
T1 sequence (P06756 891-1048 partner limits assumed): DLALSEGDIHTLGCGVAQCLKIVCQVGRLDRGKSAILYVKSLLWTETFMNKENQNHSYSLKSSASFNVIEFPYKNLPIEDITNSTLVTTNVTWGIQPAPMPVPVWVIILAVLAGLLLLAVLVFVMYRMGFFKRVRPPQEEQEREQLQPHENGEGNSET
T1 sequence (P05106 27-788): as the sequence (P05106 27-788) above
Experimental: Pharmacological Test Example 1: αvβ3 Binding assay
Integrin αvβ3 antagonistic activity of compounds according to the present invention was measured in a vitronectin-vitronectin receptor binding assay system in accordance with the method of Kouns et al. (W. C. Kouns, D. Kirchhofer, P. Hadvary, A. Edenhofer, T. Weller, G. Pfenninger, H. R. Baumgartner, L. K. Jennings and B. Steiner, Blood, 80, 2539-2547 (1992)).
Specifically, a vitronectin receptor (protein content: 118 µg/ml) purified from the human placenta in accordance with the method of Pytela et al. (R. Pytela, M. D. Pierschbacher, S. Argraves, S. Suzuki, and E. Ruoslahti, Method in Enzymology, 144, 475-489 (1987)) was diluted 50 times with TBS (20 mM Tris-HCl, 150 mM NaCl, 1 mM CaCl2, 1 mM MgCl2, pH 7.4), and distributed and coated on wells (50 µl/well) of a plate (Maxisorp, Nunc, 96 well Immuno Plate). The plate was then allowed to stand at 4°C for one day, washed twice with TBS (200 µl/well), and then subjected to blocking with TBS (150 µl/well) containing 1% bovine serum albumin (SIGMA) at 4°C overnight. After washing twice with TBS (200 µl/well), 50 µl of vitronectin (CALBIOCHEM) adjusted to 0.2 µg/ml by the addition of TBS (TBS-Tween) containing 0.01% Tween-20 was mixed with 50 µl of each test compound adjusted to each concentration in wells, and a reaction was allowed to proceed at room temperature for 4 hr. After the completion of the reaction, the wells were washed three times with TBS-Tween. A solution prepared by diluting anti-vitronectin rabbit antiserum (CHEMICON) 500 times with TBS-Tween was added as a primary antibody in an amount of 50 µl/well, and a reaction was allowed to proceed at room temperature for 1.5 hr. After washing three times with 200 µl/well of TBS-Tween, a peroxidase (POD)-labeled anti-rabbit IgG antibody solution (CAPPEL) diluted 500 times with TBS-Tween was added as a secondary antibody in an amount of 50 µl/well, and a reaction was allowed to proceed at room temperature for 1.5 hr. After washing three times with TBS-Tween (200 µl/well), ABTS (2,2'-azino-bis(3-ethylbenzthiazoline-6-sulfonic acid), SIGMA) was adjusted to 1 mg/ml by the addition of a ten-fold diluted POD-buffer (ZYMED), and was added in an amount of 50 µl/well, and a reaction was allowed to proceed for 5 to 10 min. A 0.1 M citric acid buffer (pH 4.3) containing 0.05% NaN3 was added in an amount of 50 µl/well to stop the reaction, followed by the measurement of the absorbance at 415 nm with a microplate reader (MTP 32, Corona Electric) (reference: 675 nm). The total binding was defined as the absorbance after a reaction using 50 µl of TBS-Tween instead of the test compound, and the non-specific binding (100% inhibition) was defined as the absorbance after a reaction using 50 µl of TBS-Tween containing 2 x 10^-3 M RGDS. The inhibition was calculated by the following equation: Inhibition (%) = 100-((absorbance in the presence of test compound - non-specific binding))/((total binding - non-specific binding))× 100 [formula]
IC50 was determined from a primary regression line of the logarithm of each concentration of the test compound and the logarithm of (100 - inhibition)/inhibition.

[4] = Oral absorption in rats; assay type: in vivo; details: data not shown
[5] = tested on: human platelet aggregation; test: Human platelet aggregation inhibitory activity (method of Pharmacological Test 1 in WO 94/21599); assay type: cell-based
Experimental: Human platelet aggregation inhibitory activity was measured for compounds according to the present invention. The measurement of the human platelet aggregation inhibitory activity was carried out according to the method described in Pharmacological Test 1 in WO 94/21599.

[6] = vitronectin binding to vitronectin receptor purified from the human placenta; read-out: IC50 (integrin αvβ3 antagonistic activity)
[7] = read-out: IC50 (integrin αvβ3 antagonistic activity); vitronectin binding to vitronectin receptor purified from the human placenta

Row | SMILES | IC50 [1] | also measured
1 | O=C(NC[C@H](NS(=O)(=O)c1ccccc1)C(=O)O)c1ccc(N2CCCC(Nc3ncccn3)C2)cc1 (stereo partly drawn) [Example 2, (2S)-Benzenesulfonylamino-3-[4-{3-(pyrimidin-2-ylamino)piperidin-1-yl}benzoylamino]propionic acid] | ≤ 1.1 nM | –
2 | O=C(NC[C@H](NS(=O)(=O)c1ccccc1)C(=O)O)c1ccc(N2CCC[C@H](NC3=NCCCN3)C2)c(Cl)c1 [Example 22, (2S)-Benzenesulfonylamino-3-[3-chloro-4-{(3S)-(1,4,5,6-tetrahydropyrimidin-2-ylamino)piperidin-1-yl}benzoylamino]propionic acid] | ≤ 1.1 nM | –
3 | O=C(NC[C@H](NS(=O)(=O)c1ccccc1)C(=O)O)c1ccc(N2CCC[C@H](N=C3NCCCN3)C2)cc1F [Example 30, (2S)-Benzenesulfonylamino-3-[2-fluoro-4-{(3S)-(1,4,5,6-tetrahydropyrimidin-2-ylamino)piperidin-1-yl}benzoylamino]propionic acid] | ≤ 1.1 nM | IC50 [2]: 13 nM; IC50 [3, 6]: ≤ 1 nM
4 | O=C(NC[C@H](NS(=O)(=O)c1ccccc1)C(=O)O)c1ccc(N2CCC[C@H](Nc3ncccn3)C2)c(F)c1 [Example 5, (2S)-Benzenesulfonylamino-3-[3-fluoro-4-{(3S)-(pyrimidin-2-ylamino)piperidin-1-yl}benzoylamino]-propionic acid] | – | oral absorption [4]: had oral absorption
5 | O=C(NC[C@H](NS(=O)(=O)c1ccccc1)C(=O)O)c1ccc(N2CCC[C@@H](NC3=NCCCN3)C2)c(F)c1 [Example 9, (2S)-Benzenesulfonylamino-3-[3-fluoro-4-{(3R)-(1,4,5,6-tetrahydropyrimidin-2-ylamino)piperidin1-yl}benzoylamino]propionic acid] | ≤ 1.1 nM | –
6 | O=C(NC[C@H](NS(=O)(=O)c1ccccc1)C(=O)O)c1ccc(N2CCC[C@H](Nc3ccccn3)C2)cc1 [Example 27, (2S) -Benzenesulfonylamino-3-[4-{(3S)-(pyridin-2-ylamino)piperidin-1-yl}-benzoylamino]propionic acid] | ≤ 1.1 nM | IC50 [3, 7]: ≤ 1 nM
7 | O=C(NC[C@H](NS(=O)(=O)c1ccccc1)C(=O)O)c1ccc(N2CCC[C@H](NC3=NCCCN3)C2)c(F)c1 [Example 6, (2S)-Benzenesulfonylamino-3-[3-fluoro-4-{(3S)-(1,4,5,6-tetrahydropyrimidin-2-ylamino)piperidin-1-yl}benzoylamino]propionic acid] | ≤ 1.1 nM and 1.1 nM | –
8 | O=C(NC[C@H](NS(=O)(=O)c1cccs1)C(=O)O)c1ccc(N2CCC[C@H](N=C3NCCCN3)C2)cc1 [Example 44, 3-[4-{(3S)-(1,4,5,6-Tetrahydropyrimidin-2-ylamino)piperidin-1-yl}benzoylamino]-(2S)-{(thiophene-2-sulfonyl)amino}propionic acid] | ≤ 1.1 nM | IC50 [3, 6]: ≤ 1 nM
9 | O=C(NC[C@H](NS(=O)(=O)c1ccccc1)C(=O)O)c1ccc(N2CCC[C@H](N=C3NCCCN3)C2)cc1 [Example 25, (2S)-Benzenesulfonylamino-3-[4-{(3S)-(1,4,5,6-tetrahydropyrimidin-2-ylamino)piperidin-1-yl}benzoylamino]propionic acid] | ≤ 1.1 nM | IC50 [3, 6]: ≤ 1 nM; IC50 [5]: 56 nM
10 | O=C(NC[C@H](NS(=O)(=O)c1ccccc1)C(=O)O)c1ccc(N2CCCC(NC3=NCCCN3)C2)cc1 (stereo partly drawn) [Example 3, (2S)-Benzenesulfonylamino-3-[4-{3-(1,4,5,6-tetrahydropyrimidin-2-ylamino)piperidin-1-yl}benzoylamino]propionic acid] | ≤ 1.1 nM | IC50 [3, 7]: ≤ 1 nM
11 | O=C(NC[C@H](NS(=O)(=O)c1ccccc1)C(=O)O)c1ccc(N2CCC[C@H](NC3=NCCCN3)C2)c(F)c1F [Example 19, (2S)-Benzenesulfonylamino-3-[2,3-difluoro-4-{(3S)-(1,4,5,6-tetrahydropyrimidin-2-ylamino)piperidin-1-yl}benzoylamino]propionic acid] | ≤ 1.1 nM | IC50 [3, 7]: ≤ 1 nM
